Patent US20230203098A1, “HUMAN TRANSFERRIN RECEPTOR BINDING PEPTIDE” (priority 2020, published 2023)
Like-named read-outs stand apart in the source and are kept apart here. Values belong to the compound of their own block, whether it stands above or below them. Where a SMILES comes first, the peptide text is derived from it. Bridges are numbered along the chain shown (N, C = ends). [ ]: non-standard residue; d: D form. The star is where a group is joined. X2 = O=C(O)c1cc(C(=O)*)ccc1-c1c2ccc(=O)cc-2oc2cc(O)ccc12; PEG12 = NCCOCCOCCOCCOCCOCCOCCOCCOCCOCCOCCOCCOCCC(=O)O; NMePhe(3-Cl) = CN[C@@H](Cc1cccc(Cl)c1)C(=O)O; NMeW = CN[C@@H](Cc1c[nH]c2ccccc12)C(=O)O; NMeY = CN[C@@H](Cc1ccc(O)cc1)C(=O)O; NMeF = CN[C@@H](Cc1ccccc1)C(=O)O; Ahp(2) = CCCCC[C@H](N)C(=O)O; PEG4 = NCCOCCOCCOCCOCCC(=O)O; dOrn = NCCC[C@@H](N)C(=O)O

Molecular target: transferrin receptor (hTfR) (Homo sapiens, UniProt P02786)
Sequence (P02786 whole entry): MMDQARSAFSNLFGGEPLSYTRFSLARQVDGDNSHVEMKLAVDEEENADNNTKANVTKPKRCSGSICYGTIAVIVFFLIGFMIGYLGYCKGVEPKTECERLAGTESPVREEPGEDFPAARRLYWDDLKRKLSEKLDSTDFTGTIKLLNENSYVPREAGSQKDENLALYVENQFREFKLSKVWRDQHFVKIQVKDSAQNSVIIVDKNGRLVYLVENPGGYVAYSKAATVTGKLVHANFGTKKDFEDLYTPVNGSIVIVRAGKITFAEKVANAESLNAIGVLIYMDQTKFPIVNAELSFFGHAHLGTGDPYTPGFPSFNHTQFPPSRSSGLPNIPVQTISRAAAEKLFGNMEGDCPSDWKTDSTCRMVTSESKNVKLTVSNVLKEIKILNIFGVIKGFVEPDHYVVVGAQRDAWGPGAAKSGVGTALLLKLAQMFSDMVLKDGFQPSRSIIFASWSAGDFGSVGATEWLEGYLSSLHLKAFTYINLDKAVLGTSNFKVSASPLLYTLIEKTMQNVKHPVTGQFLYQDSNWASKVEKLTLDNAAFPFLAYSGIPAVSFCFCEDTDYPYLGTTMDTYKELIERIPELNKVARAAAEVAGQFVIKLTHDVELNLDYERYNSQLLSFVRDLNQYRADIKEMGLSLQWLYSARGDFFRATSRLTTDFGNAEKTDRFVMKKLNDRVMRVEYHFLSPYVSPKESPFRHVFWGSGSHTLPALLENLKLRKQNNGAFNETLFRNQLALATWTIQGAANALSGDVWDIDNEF
Assay: Intermolecular interaction evaluation test between transferrin receptor (hTfR) and peptide by surface plasmon resonance (SPR)
Type: binding
How it was run: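 Receptor was Ni-captured and EDC/NHS-fixed on an NTA chip; running buffer HEPES pH 8.0 with NaCl, Tween 20, BSA and 1.0% DMSO.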

[1] = surface plasmon resonance, hTfR, read-out: KD value for hTfR by SPR (class symbol)
[2] = SPR, peptides, linker-added peptides and FITC conjugates, Patent ID 203-230, read-out: KD
[3] = SPR, hTfR No. 894 variants with PEG12c linker (Table 2), read-out: KD

Kd [1]: 1 to 100 nM
Compound: CCCCC[C@@H]1NC(=O)[C@H]([C@@H](C)CC)NC(=O)[C@H]([C@@H](C)CC)NC(=O)[C@H](Cc2ccc(OC)cc2)NC(=O)[C@H](Cc2ccc(O)cc2)NC(=O)[C@H](CC(N)=O)NC(=O)[C@H](Cc2c[nH]c3ccccc23)N(C)C(=O)[C@H](C(C)C)NC(=O)[C@H](Cc2cccc(Cl)c2)N(C)C(=O)[C@H](C(C)C)NC(=O)[C@H](C)NC(=O)CSC[C@@H](C(=O)NCCOCCOCCOCCOCCC(N)=O)NC(=O)[C@H](Cc2ccc(O)cc2)N(C)C(=O)[C@H](Cc2ccccc2)NC(=O)[C@@H](CCCNC(=N)N)NC1=O [compound 362] ({CH2CO}-AV[NMePhe(3-Cl)]V[NMeW]NYY(Me)II[Ahp(2)][dR]F[NMeY]C[PEG4]-NH2; thioether N-15)

Kd (surface plasmon resonance, peptide vs hTfR, read-out: KD value for hTfR by SPR (class symbol)): 100 to 1000 nM
Compound: CC[C@H](C)[C@@H]1NC(=O)[C@@H]2CCCCNC(=O)[C@H]3CCCN3C(=O)CC[C@H](NC(=O)[C@H](C(C)C)NC(=O)[C@H](C)NC(=O)CSC[C@@H](C(N)=O)NC(=O)[C@H](Cc3ccc(O)cc3)N(C)C(=O)[C@H](Cc3ccc(O)cc3)NC(=O)[C@H](CCCNC(=N)N)NC(=O)[C@H](CCCNC(=N)N)NC(=O)[C@H]([C@@H](C)CC)NC1=O)C(=O)N[C@@H](C(C)C)C(=O)N(C)[C@@H](Cc1c[nH]c3ccccc13)C(=O)N[C@@H](CC(N)=O)C(=O)N[C@@H](Cc1ccc(O)cc1)C(=O)N2 [compound 413] ({CH2CO}-AVEV[NMeW]NYKIIRRY[NMeY]C-NH2; linker 3-8 via dP; thioether N-15)

Kd [2]: 1 to 100 nM
Compound: CC[C@H](C)[C@@H]1NC(=O)[C@H](Cc2ccc(O)cc2)NC(=O)[C@H](Cc2ccc(O)cc2)NC(=O)[C@H](CC(N)=O)NC(=O)[C@H](Cc2c[nH]c3ccccc23)NC(=O)[C@H](C(C)C)NC(=O)[C@H](Cc2ccccc2)NC(=O)[C@H](C(C)C)NC(=O)[C@H](C)NC(=O)CSC[C@@H](C(=O)NCCOCCOCCOCCOCCOCCOCCOCCOCCOCCOCCOCCOCCC(=O)N[C@@H](CCCCNC(=O)c2ccc(-c3c4ccc(=O)cc-4oc4cc(O)ccc34)c(C(=O)O)c2)C(N)=O)NC(=O)[C@H](CCC(=O)O)NC(=O)[C@H](CCCNC(=N)N)NC(=O)[C@@H]2CCCN2C(=O)[C@H](C(C)C)NC1=O [compound 211] ({CH2CO}-AVFVWNYYIVPREC[PEG12]K(X2)-NH2; thioether N-14)

Kd [3]: 1 to 100 nM
Compound: CC[C@H](C)[C@@H]1NC(=O)[C@H](Cc2ccc(O)cc2)NC(=O)[C@H](Cc2ccc(O)cc2)NC(=O)[C@H](CC(N)=O)NC(=O)[C@H](Cc2c[nH]c3ccccc23)NC(=O)[C@H](C(C)C)NC(=O)[C@H](Cc2ccccc2)N(C)C(=O)[C@H](C(C)C)NC(=O)[C@H](C)NC(=O)CSC[C@@H](C(=O)NCCOCCOCCOCCOCCOCCOCCOCCOCCOCCOCCOCCOCCC(N)=O)NC(=O)[C@H](Cc2ccc(O)cc2)N(C)C(=O)[C@H](Cc2ccc(O)cc2)NC(=O)[C@H](CCCNC(=N)N)NC(=O)[C@H](CCCNC(=N)N)NC(=O)[C@H](Cc2ccc(O)cc2)NC1=O [compound 115] ({CH2CO}-AV[NMeF]VWNYYIYRRY[NMeY]C[PEG12]-NH2; thioether N-15)

Compound: CC[C@H](C)[C@@H]1NC(=O)[C@H](Cc2ccc(OC)cc2)NC(=O)[C@H](Cc2ccc(O)cc2)NC(=O)[C@H](CC(N)=O)NC(=O)[C@H](Cc2c[nH]c3ccccc23)N(C)C(=O)[C@H](C(C)C)NC(=O)[C@H](Cc2cccc(Cl)c2)N(C)C(=O)[C@H](C(C)C)NC(=O)[C@H](C)NC(=O)CSC[C@@H](C(=O)NCC(=O)NCC(=O)NCC(=O)NCC(=O)N[C@@H](CO)C(=O)N[C@@H](CO)C(=O)N[C@@H](CS)C(N)=O)NC(=O)[C@H](Cc2ccc(O)cc2)N(C)C(=O)[C@H](Cc2ccccc2)NC(=O)[C@@H](CCCNC(=N)N)NC(=O)[C@H](CCCNC(=N)N)NC(=O)[C@H](CN)NC1=O [compound 343]
Kd: 1 to 100 nM

Kd [1]: 1 to 100 nM
Compound: CC[C@H](C)[C@@H]1NC(=O)[C@H](Cc2ccc(OC)cc2)NC(=O)[C@H](Cc2ccc(O)cc2)NC(=O)[C@H](CC(N)=O)NC(=O)[C@H](Cc2c[nH]c3ccccc23)N(C)C(=O)[C@H](C(C)C)NC(=O)[C@H](Cc2cccc(Cl)c2)N(C)C(=O)[C@H](C(C)C)NC(=O)[C@H](C)NC(=O)CSC[C@@H](C(=O)N[C@H](CCC(=O)O)C(=O)N[C@H](CCC(=O)O)C(N)=O)NC(=O)[C@H](Cc2ccc(O)cc2)N(C)C(=O)[C@H](Cc2ccccc2)NC(=O)[C@@H](CCCNC(=N)N)NC(=O)C(C)(C)NC(=O)[C@H]([C@@H](C)CC)NC1=O [compound 356]

Kd (binding to hTfR by SPR, Table 2 peptides, read-out: KD value (SPR) class): 1 to 100 nM
Compound: CC[C@H](C)[C@@H]1NC(=O)[C@H](Cc2ccc(O)cc2)NC(=O)[C@H](Cc2ccc(O)cc2)NC(=O)[C@H](CC(N)=O)NC(=O)[C@H](Cc2c[nH]c3ccccc23)NC(=O)[C@H](C(C)C)NC(=O)[C@H](Cc2ccccc2)NC(=O)[C@H](C(C)C)NC(=O)[C@H](C)NC(=O)CSC[C@@H](C(N)=O)NC(=O)[C@H](Cc2ccc(O)cc2)N(C)C(=O)[C@H](CCCCN)NC(=O)[C@H](CCCNC(=N)N)NC(=O)[C@H](CCCNC(=N)N)NC(=O)[C@H]([C@@H](C)CC)NC1=O [compound 261]

Kd [3]: 1 to 100 nM
Compound: CC[C@H](C)[C@@H]1NC(=O)[C@H]([C@@H](C)CC)NC(=O)[C@H](Cc2ccc(O)cc2)N(C)C(=O)[C@H](Cc2ccc(O)cc2)NC(=O)[C@H](CC(N)=O)NC(=O)[C@H](Cc2c[nH]c3ccccc23)NC(=O)[C@H](C(C)C)NC(=O)[C@H](Cc2ccccc2)N(C)C(=O)[C@H](C(C)C)NC(=O)[C@H](C)NC(=O)CSC[C@@H](C(=O)NCCOCCOCCOCCOCCOCCOCCOCCOCCOCCOCCOCCOCCC(N)=O)NC(=O)[C@H](Cc2ccc(O)cc2)N(C)C(=O)[C@H](Cc2ccc(O)cc2)NC(=O)[C@H](CCCNC(=N)N)NC(=O)[C@H](CCCNC(=N)N)NC1=O [compound 120]

Kd [2]: 1 to 100 nM
Compound: CC[C@H](C)[C@@H]1NC(=O)[C@H](Cc2ccc(OC)cc2)NC(=O)[C@H](Cc2ccc(O)cc2)NC(=O)[C@H](CC(N)=O)NC(=O)[C@H](Cc2c[nH]c3ccccc23)N(C)C(=O)[C@H](C(C)C)NC(=O)[C@H](Cc2cccc(Cl)c2)N(C)C(=O)[C@H](C(C)C)NC(=O)[C@H](CCC(=O)O)NC(=O)CSC[C@@H](C(N)=O)NC(=O)[C@H](Cc2ccc(O)cc2)N(C)C(=O)[C@H](Cc2ccccc2)NC(=O)[C@H](CCCNC(=N)N)NC(=O)[C@H](CCCNC(=N)N)NC(=O)[C@H]([C@@H](C)CC)NC1=O [compound 217]

Kd (surface plasmon resonance, peptide vs hTfR, read-out: KD value, hTfR binding by SPR (class symbol)): 1 to 100 nM
Compound: CC[C@H](C)[C@@H]1NC(=O)[C@H](Cc2ccc(OC)cc2)NC(=O)[C@H](Cc2ccc(O)cc2)NC(=O)[C@H](CC(N)=O)NC(=O)[C@H](Cc2c[nH]c3ccccc23)N(C)C(=O)[C@H](C(C)C)NC(=O)[C@H](Cc2cccc(Cl)c2)N(C)C(=O)[C@H](C(C)C)NC(=O)[C@H](C)NC(=O)CSC[C@@H](C(=O)NCCOCCOCCOCCOCCC(N)=O)NC(=O)[C@H](Cc2ccc(O)cc2)N(C)C(=O)[C@H](Cc2ccccc2)NC(=O)[C@@H](CCCNC(=N)N)NC(=O)[C@H](CCCNC(=N)N)NC(=O)[C@@H](CCCN)NC1=O [compound 338] ({CH2CO}-AV[NMePhe(3-Cl)]V[NMeW]NYY(Me)I[dOrn]R[dR]F[NMeY]C[PEG4]-NH2; thioether N-15)

Kd [1]: 1 to 100 nM
Compound: CC[C@H](C)[C@@H]1NC(=O)[C@H](Cc2ccc(OC)cc2)NC(=O)[C@H](Cc2ccc(O)cc2)NC(=O)[C@H](CC(N)=O)NC(=O)[C@H](Cc2c[nH]c3ccccc23)N(C)C(=O)[C@H](C(C)C)NC(=O)[C@H](Cc2cccc(Cl)c2)N(C)C(=O)[C@H](C(C)C)NC(=O)[C@H](C)NC(=O)CSC[C@@H](C(N)=O)NC(=O)[C@H](Cc2ccc(O)cc2)N(C)C(=O)[C@H](Cc2ccccc2)NC(=O)[C@@H](CCCNC(=N)N)NC(=O)[C@H](CCCNC(=N)N)N(C)C(=O)[C@H]([C@@H](C)CC)NC1=O [compound 382]
